Assay results published in patent EP4782453A1 (Beyang Therapeutics Co., Ltd., priority 2023, dated 2025).
Where two headings read alike, the source gives them in different places.

What was measured:
[1] = molecular target: T1, Menin-MLL (Homo sapiens, UniProt O00255); experiment: Inhibitory activity against Menin-MLL binding (fluorescence polarization); conditions: 150 nM His-Menin, 15 nM FITC-MLL, 25°C for 60 min
T1 construct: His-Menin (M1-L615 end); purchased BIORTUS BP9210
T1 sequence (O00255 1-615 isoform O00255-1): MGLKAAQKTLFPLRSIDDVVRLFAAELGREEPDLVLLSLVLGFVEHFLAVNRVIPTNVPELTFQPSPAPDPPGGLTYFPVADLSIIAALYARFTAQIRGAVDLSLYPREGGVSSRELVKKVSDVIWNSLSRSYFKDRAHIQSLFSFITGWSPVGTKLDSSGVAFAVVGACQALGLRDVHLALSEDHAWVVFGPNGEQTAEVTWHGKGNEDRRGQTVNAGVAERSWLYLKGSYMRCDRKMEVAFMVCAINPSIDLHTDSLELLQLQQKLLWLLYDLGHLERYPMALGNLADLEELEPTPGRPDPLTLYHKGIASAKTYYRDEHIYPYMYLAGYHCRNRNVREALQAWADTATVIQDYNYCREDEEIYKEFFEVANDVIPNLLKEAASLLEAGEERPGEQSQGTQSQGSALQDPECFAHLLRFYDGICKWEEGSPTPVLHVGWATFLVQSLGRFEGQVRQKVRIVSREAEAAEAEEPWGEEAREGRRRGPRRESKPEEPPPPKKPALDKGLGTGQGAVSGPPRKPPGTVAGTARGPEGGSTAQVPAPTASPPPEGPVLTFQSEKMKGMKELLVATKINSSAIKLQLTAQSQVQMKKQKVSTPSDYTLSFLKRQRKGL
Outline: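 Fluorescence polarization competition: compound and 150 nM His-tagged menin (residues M1-L615) sit 15 min at 25 °C in pH 7.5 HEPES buffer with NaCl, DTT and BSA; 15 nM FITC-labelled MLL peptide then binds for 60 min. IC50 fitted sigmoidally from mP values, duplicate wells.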

[2] = system: MOLM-13 (carrying MLL-AF9); experiment: Inhibition of proliferation of human tumor cells (Alamar Blue, 7 days), MOLM-13; assay type: cell-based; conditions: Homo sapiens, MOLM-13 cells (carrying MLL-AF9), method calls the value GI50
Source text: Experimental Example 2: Evaluation of Inhibitory Activity of Compounds Against Proliferation of Human Tumor Cells
• Human acute lymphoblastic leukemia cells MV-4-11, purchased from American Type Culture Collection, Catalog Number: CRL-9591; • Human acute myeloid leukemia cells MOLM-13, purchased from COBIOER BIOSCIENCES CO., LTD, Catalog Number: CBP60678; • Human acute myeloid leukemia cells KG-1a, purchased from American Type Culture Collection, Catalog Number: CCL-246.1; • Inverted Microscope, purchased from Olympus Tokyo; • Countess™ Automated Cell Counter, purchased from Invitrogen, Model: C10281; and • Multilabel Reader, purchased from Bio-Tek, Model: Synergy HT.
MV-4-11 cells were cultured in an IMDM medium containing 10% fetal bovine serum, KG-a cells were cultured in an IMDM medium containing 20% fetal bovine serum, or MOLM-13 cells were cultured in an RPMI-1640 medium containing 20% fetal bovine serum, each supplemented with 100 U·mL^-1 penicillin and 100 µg·mL^-1 streptomycin. These cells were cultured at 37°C with 5% CO2. The suspensions of individual cell lines were prepared in their respective media and seeded into 96-well plates at a density of 4,000 cells/well for MV-4-11 and MOLM-13 cells, or 3,000 cells/well for KG-1a cells. On the day of the experiment, a compound stock solution was diluted in a 3-fold or 4-fold gradient using DMSO. Each gradient-diluted stock solution was then further diluted 250-fold with a complete medium to prepare a series of working solutions at different concentrations. Subsequently, 100 µL of working solution (containing a 2-fold concentration series of the test compound) was added to each well, with duplicate wells set up for each concentration.
Seven days after compound addition (on Day 7), an Alamar Blue assay reagent (MCE, HY-111391 / CS-0040317) was added to measure the fluorescence intensity in each well. Wells containing the cells in the growth medium supplemented with 0.1% DMSO (Day 7) served as high-read control wells. The readouts from the wells containing the cells in the growth medium supplemented with 0.1% DMSO on the day of compound addition (Day 0) served as low-reading control well. GraphPad Prism software was used to calculate the concentration required to inhibit 50% of cell proliferation (GI50), which serves as a cell proliferation inhibition activity index.

[3] = fluorescence polarization, read-out: Menin-MLL IC50

Structure (SMILES)	IC50 [1, 3] [nM]	IC50 ([2]; 168 h) [nM]	IC50 ([1]; Menin-MLL IC50, fluorescence polarization) [nM]	IC50 ([2]; MOLM-13, 168 h) [nM]
CCN1CCN(CCC[C@H](C(C)C)N2CC(c3cc(-c4ccc(F)cc4C(=O)N(CC)C(C)C)c4cnc(C)n4c3)C2)CC1 [Example 377]	2	1.7	–	–
CCN(C(=O)c1cc(F)ccc1-c1cc(C2CN([C@H](CN3CCN(CCOC)CC3)C(C)C)C2)cn2c(C)ncc12)C(C)C [Example 430]	8.4	46	–	–
CCN(C(=O)c1cc(F)ccc1-c1cc(C2CN([C@H](CCCN3C4COCC3C4)C(C)C)C2)cc2c1cnn2C)C(C)C [Example 426]	3.2	30	–	–
CCN(C(=O)c1cc(F)ccc1-c1cc(C2CN([C@H](CCCN3CCN[C@@H](COC)C3)C(C)C)C2)cn2c(C)ncc12)C(C)C [Example 502]	0.9	9.8	–	–
CCN(C(=O)c1cc(F)ccc1-c1cc(C2CN([C@H](CCCN3CCOC[C@@H]3CO)C(C)C)C2)cn2c(C)ncc12)C(C)C [Example 452]	5.3	39	–	–
CCN(C(=O)c1cc(F)ccc1-c1cc(C2CN([C@H](CCCN3C4CC3CN(C(C)=O)C4)C(C)C)C2)cn2c(C)ncc12)C(C)C [Example 387]	2.5	8.9	–	–
Cc1nc(F)c2c(-c3ccc(F)cc3C(=O)N3CCOC[C@H]3C)cc(C3CN([C@H](CCCN4CC5(COC5)C4)C(C)C)C3)cn12 [Example 369]	3.8	3	–	–
CCN(C(=O)c1cc(F)ccc1-c1cc(C2CN([C@H](CCCN3CCN(CCF)CC3)C(C)C)C2)cn2c(C)ncc12)C(C)C [Example 395]	2	6.1	–	–
CCN(C(=O)c1cc(F)ccc1-c1cc(C2CN([C@H](CN3CCN(C[C@H](O)CO)CC3)C(C)C)C2)cc2c1cnn2C)C(C)C [Example 440]	–	–	8.9	56
CCN(C(=O)c1cc(F)ccc1-c1cc(C2CN([C@H](CN3CCN(C(CO)CO)CC3)C(C)C)C2)cn2c(C)ncc12)C(C)C [Example 435]	4.9	26	–	–
CCN(C(=O)c1cc(F)ccc1-c1cc(C2CN([C@H](CCCN3CCC(NS(=O)(=O)CC)CC3)C(C)C)C2)cn2c(C)ncc12)C(C)C [Example 408, 2-(6-{1-[(3R)-6-(4-ethanesulfonamidopiperidin-1-yl)-2-methylhexan-3-yl]azacyclobutan-3-yl}-3-methylimidazo[1,5-a]pyridin-8-yl)-N-ethyl-5-fluoro-N-(isopropyl)benzamide]	1.7	4.2	–	–
CCN(C(=O)c1cc(F)ccc1-c1cc(C2CN([C@H](CN3CCN(C[C@@H](O)CO)CC3)C(C)C)C2)cn2c(C)ncc12)C(C)C [Example 429]	2.6	25	–	–

Now from value to compound, other results behind:

IC50 [1, 3] [nM]	IC50 ([2]; 168 h) [nM]	Structure (SMILES)	IC50 ([1]; Menin-MLL IC50, fluorescence polarization) [nM]	IC50 ([2]; MOLM-13, 168 h) [nM]
3.3	18	CCN(C(=O)c1cc(F)ccc1-c1cc(C2CN([C@H](CCCN3CCN(C(CO)CO)CC3)C(C)C)C2)cc2c1cnn2C)C(C)C [Example 433, 2-(6-{1-[(3R)-6-[4-(1,3-dihydroxylpropan-2-yl)piperazin-1-yl]-2-methylhexan-3-yl]azacyclobutan-3-yl}-1-methyl-1H-indazol-4-yl)N-ethyl-5-fluoro-N-(isopropyl)benzamide]	–	–
0.9	3.8	CCN(C(=O)c1cc(F)ccc1-c1cc(CC2CN([C@H](CCCN3CCN(CCO)CC3)C(C)C)C2)n2c(C)cncc12)C(C)C [Example 470, N-ethyl-5-fluoro-2-[6-({1-[(3R)-6-[4-(2-hydroxylethyl)piperazin-1-yl]-2-methylhexan-3-yl]azacyclobutan-3-yl}methyl)-4-methylpyrrolo[1,2-a]pyrazin-8-yl]-N-(isopropyl)benzamide]	–	–
0.9	13	CCN(C(=O)c1cc(F)ccc1-c1cc(C2CN([C@H](CCCN3CCN(C)[C@@H](CO)C3)C(C)C)C2)cn2c(C)ncc12)C(C)C [Example 506]	–	–
6.2	20	Cc1ncc2c(-c3ccc(F)cc3C(=O)N3CCOC[C@H]3C)cc(C3CN([C@H](CCCN4CCN(CCF)CC4)C(C)C)C3)cn12 [Example 363]	–	–
5.8	37	CCN(C(=O)c1cc(F)ccc1-c1cc(C2CN([C@H](CCCN3CCN(CCF)CC3)C(C)C)C2)cc2c1cnn2C)C(C)C [Example 410]	–	–
1	15	CCN(C(=O)c1cc(F)ccc1-c1cc(C2CN([C@H](CCCN3CCN(C)[C@H](CO)C3)C(C)C)C2)cn2c(C)ncc12)C(C)C [Example 507]	–	–
1	25	CCN(C(=O)c1cc(F)ccc1-c1cc(C2CN([C@H](CCCN3CCN(C4(C(N)=O)COC4)CC3)C(C)C)C2)cn2c(C)ncc12)C(C)C [Example 475, 3-{4-[(4R)-4-[3-(8-{2-[ethyl(isopropyl)aminoformyl]-4-fluorophenyl}-3-methylimidazo[1,5-a]pyridin-6-yl)azacyclobutan-1-yl]-5-methylhexyl]piperazin-1-yl}oxacyclobutan-3-formamide]	–	–
4.7	25	CCN(C(=O)c1cc(F)ccc1-c1cc(C2CN([C@H](CCCN3CCO[C@@H](CO)C3)C(C)C)C2)cn2c(C)ncc12)C(C)C [Example 451]	–	–
10.6	69	CCN(C(=O)c1cc(F)ccc1-c1cc(C2CN([C@H](CN3CCN(CCO)CC3)C(C)C)C2)cc2c1cnn2C)C(C)C [Example 416-2, N-ethyl-5-fluoro-2-(6-{1-[(2S)-1-[4-(2-hydroxyethyl)piperazin-1-yl]-3-methylbutan-2-yl]azacyclobutan-3-yl}-1-methyl-1H-indazol-4-yl)-N-(isopropyl)benzamide]	–	–
1.1	7.2	CCN(C(=O)c1cc(F)ccc1-c1cc(C2CN([C@H](CCCN3CCN(C)[C@H](COC)C3)C(C)C)C2)cn2c(C)ncc12)C(C)C [Example 509]	–	–
6.4	31	CCN(C(=O)c1cc(F)ccc1-c1cc(C2CN(C(CC[C@@H]3COCCN3)C(C)C)C2)cc2c1cnn2C)C(C)C (stereo partly drawn) [Example 458, N-ethyl-5-fluoro-2-[1-methyl-6-(1-{4-methyl-1-[(3R)-morpholin-3-yl]pentan-3-yl}azacyclobutan-3-yl}-1H-indazol-4-yl)-N-(isopropyl)benzamide]	–	–
8.1	85	CCN(C(=O)c1cc(F)ccc1-c1cc(C2CN([C@H](CN3CCN(C(CO)CO)CC3)C(C)C)C2)cc2c1cnn2C)C(C)C [Example 419]	–	–
4	31	CCN(C(=O)c1cc(F)ccc1-c1cc(C2CN([C@H](CCCN3CC4(C3)CN(C(C)=O)C4)C(C)C)C2)cc2c1cnn2C)C(C)C [Example 409]	–	–
2.7	12	CCN(C(=O)c1cc(F)ccc1-c1cc(C2CN([C@H](CCCN3CCC(NS(=O)(=O)CC)CC3)C(C)C)C2)cc2c1cnn2C)C(C)C [Example 411]	–	–
2.6	5	CCN(C(=O)c1cc(F)ccc1-c1cc(C2CN([C@H](CC[C@H]3COCCN3)C(C)C)C2)cn2c(C)ncc12)C(C)C [Example 457-2, N-ethyl-5-fluoro-2-(3-methyl-6-{1-[(3R)-4-methyl-1-[(3S)-morpholin-3-yl]pentan-3-yl]azacyclobutan-3-yl}imidazo[1,5-a]pyridin-8-yl)-N-(isopropyl)benzamide]	–	–
